Consider one compound from paper PMC5365648, “Pharmacokinetics of the Novel Echinocandin CD101 in Multiple Animal Species” (Antimicrobial Agents and Chemotherapy, 2017).

Where two headings read alike, the source gives them in different places. Starred links: 1 amine or outer side, 2 acyl side, 3 side chain; linkers in the order of their positions; H or OH if unused. Positions of bridges follow the written chain, without caps; N, C: chain ends. Non-standard residues stand in square brackets, D forms with d. Residues, ends and D or L forms follow the SMILES beside them. *: point of attachment. Orn(4R-OH,5R-OCH2CH2NMe3+) = C[N+](C)(C)CCO[C@@H](N[*:3])[C@H](O)C[C@H](N[*:1])C(=O)[*:2]; pTerphenylCO(4''-OnC5H11) = CCCCCOc1ccc(-c2ccc(-c3ccc(C(=O)*)cc3)cc2)cc1; hTyr(3S-OH,4S-OH) = N[C@H](C(=O)O)[C@H](O)[C@@H](O)c1ccc(O)cc1; Pro(3S-OH,4S-Me) = C[C@H]1CN[C@H](C(=O)O)[C@H]1O; Hyp = O=C(O)[C@@H]1C[C@@H](O)CN1

Data set [1] is described as follows: Dog pharmacokinetics, i.v. bolus. The note with it: in vivo, iv, male beagle dogs, single 1.4 mg/kg slow i.v. bolus, plasma, LC-MS/MS, noncompartmental. On the procedure:
(§1) For each of the pharmacokinetic studies, whole-blood samples (K3EDTA as anticoagulant) were collected and centrifuged within 30 min of collection. The resulting plasma was harvested and stored at −20°C until analysis. Tissue samples were homogenized by a bead-based homogenizer following the addition of deionized water to excised tissue in a 2:1 (vol/wt) ratio and stored at −20°C until analysis. Prior to analysis, plasma or homogenized tissue samples were quenched with acetonitrile (3:1, acetonitrile-plasma or tissue ratio) containing an appropriate internal standard (isotopically labeled d9-CD101 [mouse and rat] or a structural analog [dog, monkey, and chimpanzee]). Plasma and tissue homogenate concentrations (quantified against calibration standards processed the same way) were determined by reverse-phase, gradient liquid chromatography with tandem mass spectrometric detection (LC-MS/MS) using an AB-SCIEX API 3200Q/4000 mass spectrometry system. Calibration standard ranges were the following: 0.400 (lower limit of quantitation, [LLOQ]) to 200 μg/ml (CD101, mouse), 0.040 (LLOQ) to 10 μg/ml (anidulafungin, mouse), 0.002 (LLOQ) to 10 μg/ml (CD101, rat), 0.005 (LLOQ) to 10 μg/ml (anidulafungin, rat), 0.050 (LLOQ) to 10 μg/ml (CD101, dog), 0.020 (LLOQ) to 10 μg/ml (anidulafungin, dog), 0.010 (LLOQ) to 10 μg/ml (CD101, monkey), 0.001 (LLOQ) to 10 μg/ml (anidulafungin, monkey), 0.015 (LLOQ) to 10 μg/ml (CD101, chimpanzee), and 0.015 (LLOQ) to 10 μg/ml (anidulafungin, chimpanzee). When necessary, dilutions with blank matrix were made for samples that quantified above the upper limit of quantitation. The methods used in the analysis were qualified as fit for purpose: calibration standards were matrix matched with the exception that human plasma calibration standards were used to analyze chimpanzee plasma samples due to the rarity of blank chimpanzee plasma, and, for each analytical batch, triplicate calibration standards were included at the beginning, approximately in the middle, and at the end of the batch. Following analysis, quantitation was carried out by a calibration curve comprising the analyte/internal standard area ratio versus concentration. Analytical batch acceptance followed the general guidance that triplicate standards/quality controls be within ±20% for accuracy (percentage of nominal concentration) and ≤20% for precision (percent coefficient of variation).
(§2) Pharmacokinetic parameters were calculated by noncompartmental analysis using Phoenix WinNonlin (version 6.3; Pharsight, Mountain View, CA) from either individual or mean (mouse) concentration-time profiles. An unpaired t test was used to compare mean exposures from male and female rats.

The nature of data set [2]: Rat tissue distribution after i.v. bolus. The following applies: for Kp: rat, iv. Format: in vivo, Sprague-Dawley rats. The procedure: In one of three rat studies reported here, a single 5-, 15-, or 45-mg/kg dose of CD101 was administered by slow i.v. bolus (∼3 min) to Sprague-Dawley rats (n = 3 to 5/dose). Blood samples (via jugular vein catheter [JVC]) were drawn for plasma processing at 0.083, 0.25, 0.5, 1, 2, 4, 8, 24, 48, 120, 168, and 240 h after dosing. In the second rat study, conducted to assess tissue distribution, a single 5-mg/kg dose of CD101 was administered by slow i.v. bolus (∼3 min) to male Sprague-Dawley rats (n = 3 animals/time point). Blood samples (via cardiac puncture) were collected for plasma processing predose and at 0.083, 0.5, 1, 2, 4, 8, 24, 48, 72, 96, and 120 h postdose. In parallel with blood collection, animals were euthanized, and tissues (liver, lungs, kidneys, heart, spleen, and brain) were excised and frozen prior to analysis. In the third rat study, conducted to assess excretion, a single 5-mg/kg dose of CD101 was administered by slow i.v. bolus (∼3 min) to bile duct-cannulated male Sprague-Dawley rats (n = 3). Bile samples were collected from each animal into prelabeled bile collection tubes predose and at 0 to 8, 8 to 24, 24 to 48, 48 to 72, 72 to 96, and 96 to 120 h postdose; urine samples were collected from each animal at the same time points pre- and postdose.
as §1, §2

For data set [3] the following is noted: ref [10], cited from earlier work. The procedure:
The half-life of CD101 in human is about 3-fold longer (about 90 h) than that of anidulafungin (about 30 h) ([10]). It should be noted that 90 h is the effective half-life of CD101 (i.e., the half-life that covers the majority of the AUC), with a longer, later-phase half-life evident at lower concentration ...

Data set [4] is described as follows: Cynomolgus monkey pharmacokinetics, i.v. bolus. The note with it: in vivo, iv, male cynomolgus monkeys, single 2.13 mg/kg slow i.v. bolus, plasma, LC-MS/MS, noncompartmental. More on the design: species or system cynomolgus monkeys. The procedure: A single dose of 2.13 mg/kg CD101 or 2.8 mg/kg anidulafungin was administered by slow i.v. bolus (∼10 min) to cynomolgus monkeys (n = 3/group), and blood samples (via peripheral vein) were drawn for plasma processing at 0.167, 0.5, 1, 3, 8, 12, 24, 48, and 72 h postdose.
as §1, §2

[5] abbreviates: male Sprague-Dawley rats, single 5 mg/kg i.v. bolus.
[6] abbreviates: male Sprague-Dawley rats, single 5 mg/kg i.v. bolus, t = 120 h, LC-MS/MS, n = 3/time point.

One may read the AUC(0-t) as the area under the concentration-time curve up to a stated or last time point. For orientation: Cmax means the highest concentration seen after dosing. The term Tmax denotes the time from dosing to the highest level. As usually defined, the clearance is the rate of elimination divided by the concentration. As usually defined, the half-life is the time in which the quantity being followed falls by half. Take `CCCCCOc1ccc(-c2ccc(-c3ccc(C(=O)N[C@H]4C[C@@H](O)[C@@H](OCC[N+](C)(C)C)NC(=O)[C@@H]5[C@@H](O)[C@@H](C)CN5C(=O)[C@H]([C@@H](C)O)NC(=O)[C@H]([C@H](O)[C@@H](O)c5ccc(O)cc5)NC(=O)[C@@H]5C[C@@H](O)CN5C(=O)[C@H]([C@@H](C)O)NC4=O)cc3)cc2)cc1` [CD101] ({pTerphenylCO(4''-OnC5H11)}-[Orn(4R-OH,5R-OCH2CH2NMe3+)]T[Hyp][hTyr(3S-OH,4S-OH)]T[Pro(3S-OH,4S-Me)]; lactam 1-C): the values for the AUC(0-t) in data set [1] (n = 4) and in data set [4] (n = 3) were 48.7 µg·h/mL and 92.1 µg·h/mL, respectively. For the same compound, the Cmax stood at 1.57 µg/mL in data set [1] (n = 4) and 9.07 µg/mL in data set [4] (n = 3). For the same compound, the figures for the Tmax in data set [1] (n = 4) and in data set [4] (n = 3) were 4.98 min and 0.167 h, respectively. Also, the clearance amounted to 0.0181 L/h/kg in data set [1] (n = 4, read-out: CL (clearance)) and 0.0243 L/h/kg in data set [4] (n = 3, read-out: CL (clearance)). Further, the “Tmax in brain tissue” value in data set [2] (setting [5]) came to 48 h. Moreover, in data set [2] (setting [5]), the “Tmax in heart tissue” value was found to be 8 h. Further, in data set [2] (setting [5]), the “time of maximum concentration in plasma and tissues except heart and brain (first sampling time)” value was determined as 5 min. Besides, in data set [2] (setting [6]), the “Mean AUC0–t in brain tissue” value was 145 µg·h/g. Also, in data set [2] (setting [6]), the “Mean AUC0–t in kidney tissue” value is recorded as 1,100 μg · hr/g. Also, the Kp is 4 to 5 in data set [2] (male, Sprague-Dawley, kidney, lung, liver, spleen / plasma, rats, 5 mg/kg i.v., read-out: Tissue/plasma AUC ratio, fold higher in major organs (kidney, lung, liver, spleen) than in plasma); 0.609 in data set [2] (brain / plasma, male Sprague-Dawley rats, single 5 mg/kg i.v. bolus, t = 120 h, tissue homogenate, LC-MS/MS, n = 3/time point, read-out: Tissue/plasma AUC0–t ratio, brain); 1.09 in data set [2] (heart / plasma, male Sprague-Dawley rats, single 5 mg/kg i.v. bolus, t = 120 h, tissue homogenate, LC-MS/MS, n = 3/time point, read-out: Tissue/plasma AUC0–t ratio, heart); 4.62 in data set [2] (kidney, male Sprague-Dawley rats, single 5 mg/kg i.v. bolus, t = 120 h, tissue homogenate, LC-MS/MS, n = 3/time point, read-out: Tissue/plasma AUC0–t ratio, kidney); 4.14 in data set [2] (liver, male Sprague-Dawley rats, single 5 mg/kg i.v. bolus, t = 120 h, tissue homogenate, LC-MS/MS, n = 3/time point, read-out: Tissue/plasma AUC0–t ratio, liver); 4.33 in data set [2] (lung, male Sprague-Dawley rats, single 5 mg/kg i.v. bolus, t = 120 h, tissue homogenate, LC-MS/MS, n = 3/time point, read-out: Tissue/plasma AUC0–t ratio, lung). Also, the Kp in data set [2] (spleen / plasma, male Sprague-Dawley rats, single 5 mg/kg i.v. bolus, t = 120 h, tissue homogenate, LC-MS/MS, n = 3/time point, read-out: Tissue/plasma AUC0–t ratio, spleen) is 3.87. Besides, the half-life in human result in data set [3] (for CD101 the effective half-life (covers the majority of the AUC)) is “about 90 h”. In data set [3], the “half-life in human, fold longer than anidulafungin” value is “about 3 fold”. The compound further had a half-life in data set [4] (n = 3) of 39.7 h. Besides, the Vd in data set [4] (n = 3, read-out: Vss (volume of distribution at steady state)) was 0.597 L/kg.
